Results taken from US10695342B2, “Methods and compositions for preventing opioid abuse” (Albany Molecular Research, Inc., priority 2015, dated 2020).
Several values for one entry are separate records, joined by “and”; a condition that tells them apart may be missing. Equal values may be shown once. Where a name gives a salt, the structure may show the parent alone.

How the values were obtained:
[1] = Oral gavage pharmacokinetics in rats, plasma oxycodone by LC-MS/MS; conditions: 0.89 mg/kg oral, rat; for Plasma Concentration (oxycodone), Mean: mean of the N quantifiable subjects
[2] = Oral gavage pharmacokinetics in rats, plasma oxymorphone by LC-MS/MS; conditions: for concentration at 0.25 h / concentration at 0.5 h / concentration at 1 h / concentration at 2 h / concentration at 3 h / concentration at 4 h / concentration at 6 h: oral, Plasma oxymorphone
[3] = Dissolution of test article in dosing formulation; conditions: Ex No. B1a, 6.72 mg/kg group, 0.5% methylcellulose vehicle, equivalent to 2 mg/mL oxymorphone HCl
[4] = 1.77 mg/kg Oxymorphone HCl oral, rat, hydrochloride

For `COc1ccc2c3c1O[C@H]1C(OC(=O)C[C@H](OC(=O)C[C@H](O)C(=O)O)C(=O)O)=CC[C@@]4(O)[C@@H](C2)N(C)CC[C@]314` [Oxycodone Dimalate, (S)-4-((S)-1-Carboxy-3-(((4R,4aS,7aR,12bS)-4a-hydroxy-9-methoxy-3-methyl-2,3,4,4a,5,7a-hexahydro-1H-4,12-methanobenzofuro[3,2-e]isoquinolin-7-yl)oxy)-3-oxopropoxy)-2-hydroxy-4-oxobutanoic acid trifluoroacetic acid salt], the “Plasma Concentration (oxycodone) by Subject” value ([1]; 0.25 h) was “BLQ”, the “Plasma Concentration (oxycodone), Mean” value ([1]; 0.25 h) was “BLQ” and the “Plasma Concentration (oxycodone) by Subject” value ([1]; 0.5 h) was “BLQ”. The “Plasma Concentration (oxycodone), Mean” value ([1]; 0.5 h) was “BLQ”, the “Plasma Concentration (oxycodone) by Subject” value ([1]; 2 h) was “BLQ” and the “Plasma Concentration (oxycodone), Mean” value ([1]; 2 h) was “BLQ”. The “Plasma Concentration (oxycodone) by Subject” value ([1]; 3 h) was “BLQ”, the “Plasma Concentration (oxycodone), Mean” value ([1]; 3 h) was “BLQ” and the “Plasma Concentration (oxycodone) by Subject” value ([1]; 4 h) was “BLQ”. For the same compound, the “Plasma Concentration (oxycodone), Mean” value ([1]; 4 h) was “BLQ”, the “Plasma Concentration (oxycodone) by Subject” value ([1]; 6 h) was “BLQ” and the “Plasma Concentration (oxycodone), Mean” value ([1]; 6 h) was “BLQ”.
For `COc1ccc2c3c1O[C@H]1C(=O)CC[C@@]4(O)[C@@H](C2)N(C)CC[C@]314.Cl` [Oxycodone HCl, oxycodone HCl], the “Plasma Concentration (oxycodone) by Subject” value ([1]; 2 h) was “BLQ”, the “Plasma Concentration (oxycodone), Mean” value ([1]; 2 h) was “BLQ” and the “Plasma Concentration (oxycodone) by Subject” value ([1]; 3 h) was “BLQ”. The “Plasma Concentration (oxycodone), Mean” value ([1]; 3 h) was “BLQ”, the “Plasma Concentration (oxycodone) by Subject” value ([1]; 4 h) was “BLQ” and the “Plasma Concentration (oxycodone), Mean” value ([1]; 4 h) was “BLQ”. For the same compound, the “Plasma Concentration (oxycodone) by Subject” value ([1]; 6 h) was “BLQ” and the “Plasma Concentration (oxycodone), Mean” value ([1]; 6 h) was “BLQ”.
With `COc1ccc2c3c1O[C@H]1C(OC(=O)[C@H](C)O)=CC[C@@]4(O)[C@@H](C2)N(C)CC[C@]314` [Oxycodone Lactate, (S)-(4R,4aS,7aR,12bS)-4a-Hydroxy-9-methoxy-3-methyl-2,3,4,4a,5,7a-hexahydro-1H-4,12-methanobenzofuro[3,2-e]isoquinolin-7-yl 2-hydroxypropanoate trifluoroacetic acid salt] the “Plasma Concentration (oxycodone) by Subject” value ([1]; 6 h) was “BLQ” and the “Plasma Concentration (oxycodone), Mean” value ([1]; 6 h) was “BLQ”.
For `COc1ccc2c3c1O[C@H]1C(OC(=O)C[C@H](O)C(=O)O)=CC[C@@]4(O)[C@@H](C2)N(C)CC[C@]314.Cl` [Oxycodone Malate, (S)-2-Hydroxy-4-(((4R,4aS,7aR,12bS)-4a-hydroxy-9-methoxy-3-methyl-2,3,4,4a,5,7a-hexahydro-1H-4,12-methanobenzofuro[3,2-e]isoquinolin-7-yl)oxy)-4-oxobutanoic acid hydrochloride], the “Plasma Concentration (oxycodone) by Subject” value ([1]; 6 h) was “BLQ” and the “Plasma Concentration (oxycodone), Mean” value ([1]; 6 h) was “BLQ”.
With `COc1ccc2c3c1O[C@H]1C(OC(=O)[C@H](O)c4ccccc4)=CC[C@@]4(O)[C@@H](C2)N(C)CC[C@]314` [Oxycodone Mandelate, (R)-(4R,4aS,7aR,12bS)-4a-Hydroxy-9-methoxy-3-methyl-2,3,4,4a,5,7a-hexahydro-1H-4,12-methanobenzofuro[3,2-e]isoquinolin-7-yl 2-hydroxy-2-phenylacetate trifluoroacetic acid salt] the “Plasma Concentration (oxycodone) by Subject” value ([1]; 4 h) was “BLQ”, the “Plasma Concentration (oxycodone), Mean” value ([1]; 4 h) was “BLQ” and the “Plasma Concentration (oxycodone) by Subject” value ([1]; 6 h) was “BLQ”. For the same compound, the “Plasma Concentration (oxycodone), Mean” value ([1]; 6 h) was “BLQ”.
For `CCCCCCCC/C=C\CCCCCCCC(=O)OC1=CC[C@@]2(O)[C@H]3Cc4ccc(OC)c5c4[C@@]2(CCN3C)[C@H]1O5.Cl` [Oxycodone Oleate, (4R,4aS,7aR,12bS)-4a-Hydroxy-9-methoxy-3-methyl-2,3,4,4a,5,7a-hexahydro-1H-4,12-methanobenzofuro[3,2-e]isoquinolin-7-yl oleate hydrochloride], the “Plasma Concentration (oxycodone) by Subject” value ([1]; 4 h) was “BLQ” and the “Plasma Concentration (oxycodone), Mean” value ([1]; 4 h) was “BLQ”.
For `CN1CC[C@]23c4c5ccc(O)c4O[C@H]2C(=O)CC[C@@]3(O)[C@H]1C5` [Oxymorphone HCl, oxymorphone hydrochloride], the “Plasma oxymorphone, individual rats” value ([2]; 1.77 mg/kg Oxymorphone HCl oral, rat, 0.25 h, hydrochloride) was 0.379 ng/mL and 0.862 ng/mL and 1.144 ng/mL, the “Plasma oxymorphone, individual rats” value ([2]; 1.77 mg/kg Oxymorphone HCl oral, rat, 0.5 h, hydrochloride) was 0.343 ng/mL and 0.925 ng/mL and 0.799 ng/mL and the “Plasma oxymorphone, individual rats” value ([2]; 1.77 mg/kg Oxymorphone HCl oral, rat, 1 h, hydrochloride) was 0.545 ng/mL and 1.557 ng/mL and 1.110 ng/mL. The “Plasma oxymorphone, individual rats” value ([2]; 1.77 mg/kg Oxymorphone HCl oral, rat, 2 h, hydrochloride) was 0.728 ng/mL and 1.826 ng/mL and 0.621 ng/mL, the “Plasma oxymorphone, individual rats” value ([2]; 1.77 mg/kg Oxymorphone HCl oral, rat, 3 h, hydrochloride) was 0.676 ng/mL and BQL (BQL: <0.200 ng/mL) and the “Plasma oxymorphone, individual rats” value ([2]; 1.77 mg/kg Oxymorphone HCl oral, rat, 4 h, hydrochloride) was 0.429 ng/mL and BQL (BQL: <0.200 ng/mL). The “Plasma oxymorphone, individual rats” value ([2]; 1.77 mg/kg Oxymorphone HCl oral, rat, 6 h, hydrochloride) was “BQL (BQL: <0.200 ng/mL)”, the “Cmax of plasma oxymorphone, individual rats” value [2, 4] was 0.728 ng/mL and 1.826 ng/mL and 1.144 ng/mL and the “Tmax of plasma oxymorphone, individual rats” value [2, 4] was 2.00 h (2×) and 0.25 h. For the same compound, the “Plasma oxymorphone, individual rats” value ([2]; 3.54 mg/kg Oxymorphone HCl oral, rat, 0.25 h, hydrochloride) was 4.958 ng/mL and 3.246 ng/mL and 1.767 ng/mL, the “Plasma oxymorphone, individual rats” value ([2]; 3.54 mg/kg Oxymorphone HCl oral, rat, 0.5 h, hydrochloride) was 4.716 ng/mL and 2.469 ng/mL and 2.095 ng/mL and the “Plasma oxymorphone, individual rats” value ([2]; 3.54 mg/kg Oxymorphone HCl oral, rat, 1 h, hydrochloride) was 3.423 ng/mL and 2.146 ng/mL and 0.913 ng/mL. The “Plasma oxymorphone, individual rats” value ([2]; 3.54 mg/kg Oxymorphone HCl oral, rat, 2 h, hydrochloride) was 2.434 ng/mL and 1.639 ng/mL, the “Plasma oxymorphone, individual rats” value ([2]; 3.54 mg/kg Oxymorphone HCl oral, rat, 3 h, hydrochloride) was 0.577 ng/mL and 1.635 ng/mL and 1.276 ng/mL and the “Plasma oxymorphone, individual rats” value ([2]; 3.54 mg/kg Oxymorphone HCl oral, rat, 4 h, hydrochloride) was 0.545 ng/mL and 0.618 ng/mL. The “Plasma oxymorphone, individual rats” value ([2]; 3.54 mg/kg Oxymorphone HCl oral, rat, 6 h, hydrochloride) was 0.796 ng/mL and 0.774 ng/mL, the concentration at 0.25 h ([2]; male, Sprague Dawley, rat, plasma, 1.77 mg/kg, Mean, 1.77 mg/kg Oxymorphone HCl oral, 0.25 h) was 0.795 ng/mL and the concentration at 0.5 h ([2]; male, Sprague Dawley, rat, plasma, 1.77 mg/kg, Mean, 1.77 mg/kg Oxymorphone HCl oral, 0.5 h) was 0.689 ng/mL. For the same compound, the concentration at 1 h ([2]; male, Sprague Dawley, rat, plasma, 1.77 mg/kg, Mean, 1.77 mg/kg Oxymorphone HCl oral, 1 h) was 1.07 ng/mL, the concentration at 2 h ([2]; male, Sprague Dawley, rat, plasma, 1.77 mg/kg, Mean, 1.77 mg/kg Oxymorphone HCl oral, 2 h) was 1.06 ng/mL and the concentration at 3 h ([2]; male, Sprague Dawley, rat, plasma, 1.77 mg/kg, Mean, 1.77 mg/kg Oxymorphone HCl oral, 3 h) was 0.378 ng/mL. For the same compound, the concentration at 4 h ([2]; male, Sprague Dawley, rat, plasma, 1.77 mg/kg, Mean, 1.77 mg/kg Oxymorphone HCl oral, 4 h) was 0.312 ng/mL, the concentration at 6 h ([2]; male, Sprague Dawley, rat, plasma, 1.77 mg/kg, Mean, 1.77 mg/kg Oxymorphone HCl oral, 6 h) was 0.6 ng/mL and the concentration at 3 h ([2]; male, Sprague Dawley, rat, plasma, 1.77 mg/kg, individual rats, 1.77 mg/kg Oxymorphone HCl oral, 3 h) was 0.457 ng/mL. The concentration at 4 h ([2]; male, Sprague Dawley, rat, plasma, 1.77 mg/kg, individual rats, 1.77 mg/kg Oxymorphone HCl oral, 4 h) was 0.508 ng/mL, the concentration at 6 h ([2]; male, Sprague Dawley, rat, plasma, 1.77 mg/kg, individual rats, 1.77 mg/kg Oxymorphone HCl oral, 6 h) was 1.8 ng/mL and the concentration at 0.25 h ([2]; male, Sprague Dawley, rat, plasma, 3.54 mg/kg, Mean, 3.54 mg/kg Oxymorphone HCl oral, 0.25 h) was 3.32 ng/mL. For the same compound, the concentration at 0.5 h ([2]; male, Sprague Dawley, rat, plasma, 3.54 mg/kg, Mean, 3.54 mg/kg Oxymorphone HCl oral, 0.5 h) was 3.09 ng/mL, the concentration at 1 h ([2]; male, Sprague Dawley, rat, plasma, 3.54 mg/kg, Mean, 3.54 mg/kg Oxymorphone HCl oral, 1 h) was 2.16 ng/mL and the concentration at 2 h ([2]; male, Sprague Dawley, rat, plasma, 3.54 mg/kg, Mean, 3.54 mg/kg Oxymorphone HCl oral, 2 h) was 1.78 ng/mL. The concentration at 3 h ([2]; male, Sprague Dawley, rat, plasma, 3.54 mg/kg, Mean, 3.54 mg/kg Oxymorphone HCl oral, 3 h) was 1.16 ng/mL, the concentration at 4 h ([2]; male, Sprague Dawley, rat, plasma, 3.54 mg/kg, Mean, 3.54 mg/kg Oxymorphone HCl oral, 4 h) was 0.499 ng/mL and the concentration at 6 h ([2]; male, Sprague Dawley, rat, plasma, 3.54 mg/kg, Mean, 3.54 mg/kg Oxymorphone HCl oral, 6 h) was 0.674 ng/mL. It also gave a concentration at 2 h ([2]; male, Sprague Dawley, rat, plasma, 3.54 mg/kg, individual rats, 3.54 mg/kg Oxymorphone HCl oral, 2 h) of 1.27 ng/mL, a concentration at 4 h ([2]; male, Sprague Dawley, rat, plasma, 3.54 mg/kg, individual rats, 3.54 mg/kg Oxymorphone HCl oral, 4 h) of 0.335 ng/mL and a concentration at 6 h ([2]; male, Sprague Dawley, rat, plasma, 3.54 mg/kg, individual rats, 3.54 mg/kg Oxymorphone HCl oral, 6 h) of 0.453 ng/mL. For the same compound, the Cmax ([2]; male, Sprague Dawley, rat, plasma, po, 1.77 mg/kg, Cmax of plasma oxymorphone, Mean, 1.77 mg/kg Oxymorphone HCl oral) was 1.23 ng/mL and the Tmax ([2]; male, Sprague Dawley, rat, plasma, po, 1.77 mg/kg, Tmax of plasma oxymorphone, Mean, 1.77 mg/kg Oxymorphone HCl oral) was 1.42 h.
With `CN1CC[C@]23c4c5ccc(O)c4O[C@H]2C(OC(=O)[C@@H](O)c2ccccc2)=CC[C@@]3(O)[C@H]1C5.Cl` [Oxymorphone Mandelate] the “Solubility of test article in dosing formulation” value [3] was “(not completely soluble)”.
For `CCCCCCCC/C=C\CCCCCCCC(=O)OC1=CC[C@@]2(O)[C@H]3Cc4ccc(O)c5c4[C@@]2(CCN3C)[C@H]1O5` [Oxymorphone Oleate, trifluoroacetic acid salt], the “Plasma oxymorphone, individual rats” value ([2]; 7.12 mg/kg oral, Ex No. B3, rat, 0.25 h, trifluoroacetic acid salt) was “BQL (BQL: <0.200 ng/mL)”, the “Plasma oxymorphone, individual rats” value ([2]; 7.12 mg/kg oral, Ex No. B3, rat, 0.5 h, trifluoroacetic acid salt) was “BQL (BQL: <0.200 ng/mL)” and the “Plasma oxymorphone, individual rats” value ([2]; 7.12 mg/kg oral, Ex No. B3, rat, 2 h, trifluoroacetic acid salt) was “BQL (BQL: <0.200 ng/mL)”.
